Entries after “also recorded” stand apart in the source; their conditions may differ. Read-outs that look alike come from different tables or passages of the source.
How the values were obtained:
[1] = humans, oral intake of a 80-120 mg dose of ginkgo biloba leaf extract; cited from earlier work
[2] = tested on: rats; details: dose selective for α5-containing GABAA receptors; cited from earlier work
[3] = tested on: rats; details: cited from earlier work
[4] = cited from earlier work
[5] = tested on: Ts65Dn mice; experiment: Two-object based object recognition task; assay type: in vivo, mouse; details: for Persistence of cognitive improvement after drug treatment, summary statement: after cessation of chronic treatment; for Object recognition memory, summary statement: chronic administration
Text: The object recognition task, a behavioral assay not requiring explicit rule learning or prolonged training, is based on the innate tendency of mice to differentially explore novel objects over familiar ones. Animals are submitted to daily handling sessions and are given an opportunity to habituate to a black acrylic, boxed enclosure, where they are exposed to two different objects during a 15-min training session. […] All are generally consistent in height and volume, and are symmetrical on a horizontal plane. They are set in two corners of the apparatus, positioned across from one another along its diameter. Subsequently, a 15-min. testing session is conducted 24 h after training. Here, the mice are presented with the object they had explored the previous day, and a new item (the objects being alternatively positioned in one corner or another in a balanced fashion).
Memory is operationally defined as the proportion of time animals spend investigating the novel object minus the proportion spent investigating the familiar one (Discrimination Index, DI=[Novel Object Exploration Time/Total Exploration Time−Familiar Object Exploration Time/Total Exploration Time]×100), where exploration constitutes any investigative behavior (i.e., head orientation, sniffing) or deliberate contact (i.e. rearing, licking) that occurs with each object. Behavioral trials are recorded by a tripod-mounted digital camera. Importantly, the object recognition task can be used repeatedly to evaluate rodent memory across time, and across various drug treatment regiments. Mice are trained and tested once per week, each experimental session separated by a 1-week interval, and are serially presented with new sets of objects. In this scheme, each mouse is considered a naïve subject, and each week's performance is considered an independent observation. Finally, all behavioral data are analyzed by Student's unpaired t tests.
Moreover, learning performance in the test is not confounded by task aversiveness, a variable common in avoidance paradigms, in food-motivated tasks, and in the Morris water maze (MWM). […] Thus, object recognition is an appropriate rodent cognitive task to assess Ts65Dn learning and memory deficits, and the mitigation of these deficits with pharmacological treatment.
The present experiment was carried out in a longitudinal, cross-over fashion, submitting four cohorts of WT and Ts65Dn experiment al pairs to a 4-week testing schedule. […] Note that untreated WT and Ts65Dn pairs had been previously run in order to validate the 2-object recognition test. […] N values reflect the number of observations (repetitions) per treatment. DI values are expressed as mean±SEM.
The animals were randomly assigned to groups receiving daily servings of chocolate milk or Metrazol (3 mg/kg), and were submitted to two repetitions of object recognition testing. For the purposes of drug delivery, all mice were conditioned to drinking chocolate milk in their home cages and then in cylindrical feeding tubes for 4 days. Subsequent to this conditioning, they were placed daily into the feeding tubes, and presented with small eppendorf caps of milk or a milk-Metrazol cocktail. The milk solutions were typically consumed within 10 min, after which the mice were returned to their home cages. In the current experiment, two cohorts of WT and Ts65Dn mice were submitted to a twoweek testing schedule. […] N values reflect the number of observations (repetitions) per treatment. DI values are expressed as mean±SEM.

[6] = tested on: Ts65Dn mice; experiment: Hippocampal LTP after chronic drug administration; assay type: in vivo, mouse; details: after chronic once a day administration
Text: It is shown that chronic (but not acute) once a day drug administration in Ts65Dn mice was able to normalize cognitive performance in the novel object recognition and spontaneous alteration tasks, and to rescue hippocampal LTP (see also Fernandez et al. (2007) Nat. Neurosci. 10, 411-413, herein specifically incorporated by reference).

[7] = cited from earlier work; remark: listed apart in the source
[8] = tested on: Ts65Dn mice; experiment: Spontaneous holeboard task; assay type: in vivo, mouse
Text: One cohort of WT and Ts65Dn mice, used to determine the effects of chronic Metrazol on Ts65Dn object recognition performance, were submitted to a spontaneous holeboard task approximately 1 month after the end of Metrazol treatment and object recognition testing. Here, milk- and drug-treated animals (now 5.0 months of age) were habituated to Med Associates open field activity monitors (27.9 cm×27.9 cm) (FIGS. 7b and 7c), and then evaluated for holeboard exploration during a 7-min session. Please note that 2 rounds of holeboard testing were conducted during the light phase of the light/dark cycle, and were separated by a 1-week interval. […] N values reflect the number of observations (repetitions) per treatment. Values are expressed as mean±SEM.

[9] = tested on: rats; details: chronic subcutaneous, approximately 10.0 mg/kg, ~9 months; cited from earlier work
[10] = tested on: rats and mice; details: acute post-training, peripheral injection or oral intake; cited from earlier work
[11] = tested on: hippocampal population spikes; details: cited from earlier work
[12] = barbital-induced narcosis; cited from earlier work
[13] = tested on: children with Down Syndrome; details: children with Down Syndrome (Cocchi 1985); cited from earlier work
[14] = tested on: Ts65Dn mice; experiment: Accelerating rotorod test (motor learning); assay type: in vivo, mouse; details: chronic PTX treatment (FIG. 12)
[15] = tested on: Ts65Dn hippocampal LTP; details: application of picrotoxin in vitro (Kleschevnikov 2004); cited from earlier work

In the case of `CC1C(=O)OC2C(O)C34C5CC(C(C)(C)C)C36C(OC(=O)C6O)OC4(C(=O)O5)C12O` (stereo not drawn) [Ginkgolide B, ginkgolide B], the Bioavailability [1] is listed as “at least 80%” and the Half-life [1] is listed as 6 h.

In the case of `CCOC(=O)c1ncn2c1[C@@H]1CCCN1C(=O)c1cc(OC)ccc1-2` [L-655,708], the Pro-convulsant effect [2] is given as “not pro-convulsant” and the Cognition [3] is given as “enhance cognition in rats”.

For `C1CCc2nnnn2CC1` [Metrazol, pentamethylenetetrazol], the “Adverse or toxic effects” value ([4]; humans, dose range of less than about 100-400 mg/day) is given as “little to no adverse or toxic effects”, the Electrocardiographic tracings ([4]; patients on Metrazol) is given as “no abnormalities in their electrocardiographic tracings” and the “Temperature curves, respiration, blood sugar, icteric index, pulse rate” value ([4]; patients on Metrazol) is given as “no changes in temperature curves, respiration, blood sugar, icteric index or pulse rate”. The “Persistence of cognitive improvement after drug treatment, summary statement” value (shortened to “Persistence of cognitive improvement”) ([5]; Ts65Dn mice) was “found to have longevity in its effects for weeks after treatment”, the “Persistence of cognitive improvement” value ([5]; Ts65Dn mice, listed as PTZ) was “persistent, post-drug recovery of Ts65Dn cognition” and the “Object recognition memory, summary statement” value ([5]; Ts65Dn mice) was “restore Ts65Dn object recognition performance”. For the same compound, the “Discrimination Index (DI), object recognition memory” value (from here on “Discrimination Index (DI)”) ([5]; Ts65Dn mice, daily oral Metrazol 3 mg/kg in milk, compared with Ts65Dn mice given milk alone (p<0.03)) was “significantly higher than Ts65Dn mice administered milk alone”, the “Discrimination Index (DI)” value ([5]; Ts65Dn mice, daily oral Metrazol 3 mg/kg in milk, two weeks, compared with WT mice given milk (p<0.16) or Metrazol (p<0.47)) was “DI scores on par with those of WT mice given milk” and the “Post-drug recovery of hippocampal LTP” value [6] was “post-drug recovery of Ts65Dn cognition and LTP lasting for several months”. For the same compound, the “Distribution between brain regions” value ([7]; after intraperitoneal injection, cerebellum, midbrain, cortex) was “allocated evenly between the 3 major brain divisions”, the “Time to maximum physiological levels” value ([7]; after oral intake or systemic injection) was 5-10 min and the Blood-brain barrier passage ([7]; in vivo) was “readily crosses the blood-brain barrier”. For the same compound, the Half-life ([7]; in vivo) was 1 to 2 h, the Volume of distribution ([7]; in vivo) was “approximates the volume of total body water” and the “Holeboard exploration efficiency (head-dips into previously explored holes)” value ([8]; Ts65Dn mice about 1 month after end of Metrazol treatment, compared with WT-milk (p>0.07) and WT-Metrazol (p<0.31)) was “showed similar exploration efficiency”. The “Holeboard exploration efficiency, summary statement” value ([8]; Ts65Dn mice after GABA antagonist treatment with Metrazol) was “rescued and persevere in Ts65Dn mice”, the “Reversal learning in a shock-motivated, spatial maze task” value [9] was “elevates reversal learning” and the “Signs of neuronal aging in the hippocampus” value [9] was “curtails signs of neuronal aging in the hippocampus”. For the same compound, the Learning and memory [10] was “facilitate normal learning and memory in rats and mice”.

For `CC(C)(C)[C@]1(O)C[C@@H]2OC(=O)C[C@@]23C(=O)O[C@@H]2OC(=O)[C@H](O)[C@]213` [bilobalide, Bilobalide], the Paired pulse inhibition [11] is given as “decrease paired pulse inhibition”, the “Amplitude of hippocampal population spikes” value ([11]; muscimol-dependent manner) is given as “significantly increase the amplitude of hippocampal population spikes” and the “Discrimination Index (DI)” value ([5]; Ts65Dn mice, 30 daily i.p. injections through the 4-week testing schedule) is given as “resembled Ts65Dn mice receiving PTX”. The “Object recognition memory, summary statement” value ([5]; Ts65Dn mice) was “restore Ts65Dn object recognition performance”, the Sleeping time [12] was “shorten sleeping time” and the Bioavailability [1] was 70%. The Half-life [1] was 3 h.

In the case of `CN1C(=O)CN=C(c2ccccc2)c2cc(Cl)ccc21` [diazepam], the Depression [13] is given as “reducing depression”.

With Picrotoxin [PTX] the “Time normal object recognition memory is maintained post-treatment” value ([5]; PTX-treated Ts65Dn mice after cessation of chronic treatment) was “at least 2 weeks”, the Object recognition performance ([5]; Ts65Dn mice, acute PTX (FIG. 11)) was “Unable to Reliably Rescue Ts65Dn Performance” and the “Persistence of cognitive improvement” value ([5]; Ts65Dn mice) was “maintained post drug treatment”. For the same compound, the “Object recognition memory, summary statement” value ([5]; Ts65Dn mice) was “able to recover Ts65Dn declarative memory”, the “Object recognition memory, summary statement” value ([5]; Ts65Dn mice, listed as Picrotoxin) was “normalizes object recognition memory in Ts65Dn mice” and the “Object recognition memory, summary statement” value ([5]; Ts65Dn mice, listed as picrotoxin) was “normalizes learning of Ts65Dn mice in an object recognition task”. For the same compound, the “Rotorod performance / motor learning” value [14] was “does not influence Ts65Dn motor learning; also recorded: does not influence Ts65Dn Rotorod Performance” and the “Deficits in Ts65Dn hippocampal LTP” value [15] was “shown to reverse”.

From patent publication US10172825B2, “Pharmacological treatment of cognitive impairment” (priority 2006, dated 2019)
